Test results reported in PMC7933930, “Development of a small molecule that corrects misfolding and increases secretion of Z α1‐antitrypsin” (EMBO Molecular Medicine, 2021).

Legend:
Serotonin 5HT2A = Serotonin 5HT2A (Homo sapiens, UniProt P28223); test: Off‐target panel: Serotonin 5HT2A; format: cell-based
Method: (§1) GSK716 selectivity and PK properties were profiled in order to investigate the suitability of GSK716 for progression into in vivo studies and the potential for taking it forward as a clinical candidate for testing in humans. Since GSK716 results in loss of inhibitory activity of α1‐antitrypsin, the effect of the compound was assessed on other closely related serpins. […] Furthermore, there were no off‐target effects in a panel of assays considered predictive of known safety liabilities that precluded further development of GSK716 (Table EV1).

Z α1‐antitrypsin = Z α1‐antitrypsin (Homo sapiens, UniProt P01009, E366K); test: Stoichiometry of inhibition against chymotrypsin, Z α1‐antitrypsin; format: biochemical; parameters: purified from the plasma of Z α1‐antitrypsin homozygotes; from tissue; host or cells: human plasma of Z α1-antitrypsin homozygotes; conditions: Z α1‐antitrypsin pre‐incubated with GSK716 (50µM), read-out: loss of protease inhibitory activity
Sequence of Z α1‐antitrypsin (P01009 25-418 E366K): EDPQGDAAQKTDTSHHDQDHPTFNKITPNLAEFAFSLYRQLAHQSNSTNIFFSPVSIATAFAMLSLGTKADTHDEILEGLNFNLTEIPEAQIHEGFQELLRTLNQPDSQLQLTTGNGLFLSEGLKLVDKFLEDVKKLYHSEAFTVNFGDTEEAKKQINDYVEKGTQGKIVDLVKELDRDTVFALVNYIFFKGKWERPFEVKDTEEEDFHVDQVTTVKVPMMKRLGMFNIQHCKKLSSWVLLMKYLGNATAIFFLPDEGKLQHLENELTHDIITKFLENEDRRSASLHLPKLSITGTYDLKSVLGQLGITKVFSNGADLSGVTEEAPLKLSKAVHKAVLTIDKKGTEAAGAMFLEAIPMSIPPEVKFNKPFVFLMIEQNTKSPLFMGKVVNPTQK
Method: Mutations that interfere with the opening of β‐sheet A or that perturb its interaction with the N‐terminal portion of the reactive centre loop alter the ability of serpins to inhibit target proteases (Hood et al, 1994; Irving et al, 2014). The stoichiometry of inhibition (SI) was determined for M α1‐antitrypsin and Z α1‐antitrypsin in discontinuous experiments against a model target protease, chymotrypsin. The pre‐incubation of both variants with GSK716 led to a > 98% loss of protease inhibitory activity (Fig 5A).
Figure 5 The effect of GSK716 on serpin inhibitory activity • α1‐Antitrypsin was incubated at varying molar ratios with the model protease bovine α‐chymotrypsin, and the residual protease activity determined. […] The position of covalent α1‐antitrypsin‐chymotrypsin complex (cpx), native (nat) and cleaved (clv) is shown. • The inhibitory activity of α1‐antichymotrypsin against chymotrypsin (ach + chym), neuroserpin against trypsin (neus + tryp), and antithrombin against thrombin (atiii + thrombin) was determined in the presence and absence of GSK716. […]
The native state stability of α1‐antitrypsin on addition of compounds was investigated by thermal denaturation in the presence of a 5X concentration of SYPRO Orange dye solution (Life Technologies) (Nettleship et al, 2008). Resistance to heat‐induced polymerisation was determined using an end‐point constant‐temperature assay. […]

Serotonin 5HT3 = molecular target: T1, Serotonin 5HT3 (Homo sapiens, UniProt P46098); test: Off‐target panel: Serotonin 5HT3 (DRX); format: cell-based
T1 sequence (P46098 24-478): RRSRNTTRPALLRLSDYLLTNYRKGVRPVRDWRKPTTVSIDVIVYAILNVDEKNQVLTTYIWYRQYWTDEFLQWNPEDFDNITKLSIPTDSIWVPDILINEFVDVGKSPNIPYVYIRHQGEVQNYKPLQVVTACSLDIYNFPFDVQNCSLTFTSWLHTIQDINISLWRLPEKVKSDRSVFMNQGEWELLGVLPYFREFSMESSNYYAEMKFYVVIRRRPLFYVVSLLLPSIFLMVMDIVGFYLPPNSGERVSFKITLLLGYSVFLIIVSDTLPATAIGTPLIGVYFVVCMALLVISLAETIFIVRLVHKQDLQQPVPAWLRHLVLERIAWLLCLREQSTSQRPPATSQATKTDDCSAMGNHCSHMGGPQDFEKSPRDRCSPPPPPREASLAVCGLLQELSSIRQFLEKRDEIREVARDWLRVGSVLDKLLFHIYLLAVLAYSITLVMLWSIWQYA
Method: as §1

Monoamine oxidase A = Monoamine oxidase A (Homo sapiens, UniProt P21397); test: Off‐target panel: Monoamine oxidase A; format: biochemical; conditions: Inhibition, read-out: Mean (PXC50)
Sequence of Monoamine oxidase A (P21397 whole entry): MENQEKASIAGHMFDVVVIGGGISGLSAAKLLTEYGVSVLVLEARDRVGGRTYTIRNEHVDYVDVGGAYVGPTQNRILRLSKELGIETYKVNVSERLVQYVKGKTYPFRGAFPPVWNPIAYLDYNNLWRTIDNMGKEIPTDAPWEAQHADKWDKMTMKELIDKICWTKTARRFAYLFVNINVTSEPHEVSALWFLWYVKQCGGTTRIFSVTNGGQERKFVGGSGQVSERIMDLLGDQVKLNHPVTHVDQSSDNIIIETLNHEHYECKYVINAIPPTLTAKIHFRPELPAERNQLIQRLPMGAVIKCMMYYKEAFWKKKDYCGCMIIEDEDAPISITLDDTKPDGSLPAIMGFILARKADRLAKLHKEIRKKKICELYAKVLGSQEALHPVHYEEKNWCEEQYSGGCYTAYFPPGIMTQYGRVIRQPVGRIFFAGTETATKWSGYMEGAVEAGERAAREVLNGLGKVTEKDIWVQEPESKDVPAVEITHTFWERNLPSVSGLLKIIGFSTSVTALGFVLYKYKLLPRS
Method: as §1

Adenosine A2a = Adenosine A2a (Homo sapiens, UniProt P29274); test: Off‐target panel: Adenosine A2a; format: cell-based; conditions: Agonist, read-out: Mean (PXC50)
Sequence of Adenosine A2a (P29274 whole entry): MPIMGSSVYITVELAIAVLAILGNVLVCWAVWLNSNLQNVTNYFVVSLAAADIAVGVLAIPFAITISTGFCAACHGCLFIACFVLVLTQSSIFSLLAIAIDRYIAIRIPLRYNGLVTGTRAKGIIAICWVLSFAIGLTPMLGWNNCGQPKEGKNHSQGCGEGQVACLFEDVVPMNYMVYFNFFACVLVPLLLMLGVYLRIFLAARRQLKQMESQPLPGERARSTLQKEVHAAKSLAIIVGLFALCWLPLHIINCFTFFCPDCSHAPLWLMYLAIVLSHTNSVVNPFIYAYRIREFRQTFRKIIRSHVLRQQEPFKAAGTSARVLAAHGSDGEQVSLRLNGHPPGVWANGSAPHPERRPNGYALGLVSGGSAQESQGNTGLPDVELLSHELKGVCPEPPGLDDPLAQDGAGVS
Method: as §1

PDE3A = PDE3A (Homo sapiens, UniProt Q14432); test: Off‐target panel: PDE3A; format: biochemical; conditions: Inhibition, read-out: Mean (PXC50)
Sequence of PDE3A (Q14432 whole entry, species assumed): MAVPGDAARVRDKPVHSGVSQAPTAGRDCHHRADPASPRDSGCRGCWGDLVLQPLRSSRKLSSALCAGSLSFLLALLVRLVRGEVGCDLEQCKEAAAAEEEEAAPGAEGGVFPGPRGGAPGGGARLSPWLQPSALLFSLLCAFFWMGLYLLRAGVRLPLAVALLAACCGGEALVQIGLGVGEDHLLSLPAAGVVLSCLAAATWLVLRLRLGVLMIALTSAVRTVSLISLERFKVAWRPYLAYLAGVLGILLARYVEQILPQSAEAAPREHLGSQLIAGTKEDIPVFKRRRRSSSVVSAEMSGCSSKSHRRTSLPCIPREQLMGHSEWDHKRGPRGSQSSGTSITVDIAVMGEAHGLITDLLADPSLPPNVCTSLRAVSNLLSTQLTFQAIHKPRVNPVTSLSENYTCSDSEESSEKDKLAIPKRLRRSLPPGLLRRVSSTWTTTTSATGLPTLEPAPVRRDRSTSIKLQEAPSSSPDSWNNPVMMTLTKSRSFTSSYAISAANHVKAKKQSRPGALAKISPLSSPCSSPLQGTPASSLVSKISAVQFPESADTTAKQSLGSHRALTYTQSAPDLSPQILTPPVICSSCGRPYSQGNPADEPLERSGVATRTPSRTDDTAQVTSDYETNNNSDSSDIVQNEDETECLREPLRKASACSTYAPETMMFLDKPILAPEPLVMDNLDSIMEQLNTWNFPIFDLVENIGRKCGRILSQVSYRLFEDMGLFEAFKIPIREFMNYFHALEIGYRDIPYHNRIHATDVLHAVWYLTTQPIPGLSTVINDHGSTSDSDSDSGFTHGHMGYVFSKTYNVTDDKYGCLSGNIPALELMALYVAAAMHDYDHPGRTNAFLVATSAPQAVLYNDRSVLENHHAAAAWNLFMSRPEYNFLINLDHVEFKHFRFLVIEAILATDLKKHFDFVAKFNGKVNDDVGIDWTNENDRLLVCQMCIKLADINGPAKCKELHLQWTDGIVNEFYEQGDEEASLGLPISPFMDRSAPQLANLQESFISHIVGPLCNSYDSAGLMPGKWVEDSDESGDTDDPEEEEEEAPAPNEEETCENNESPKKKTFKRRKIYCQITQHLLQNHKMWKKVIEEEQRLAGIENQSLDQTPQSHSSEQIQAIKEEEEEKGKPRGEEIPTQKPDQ
Method: as §1

Dopamine D2 (DRD2S) = Dopamine D2 (DRD2S) (Homo sapiens, UniProt P14416); test: Off‐target panel: Dopamine D2 (DRD2S) (DRX); format: cell-based
Sequence of Dopamine D2 (DRD2S) (P14416 1-414 isoform P14416-2): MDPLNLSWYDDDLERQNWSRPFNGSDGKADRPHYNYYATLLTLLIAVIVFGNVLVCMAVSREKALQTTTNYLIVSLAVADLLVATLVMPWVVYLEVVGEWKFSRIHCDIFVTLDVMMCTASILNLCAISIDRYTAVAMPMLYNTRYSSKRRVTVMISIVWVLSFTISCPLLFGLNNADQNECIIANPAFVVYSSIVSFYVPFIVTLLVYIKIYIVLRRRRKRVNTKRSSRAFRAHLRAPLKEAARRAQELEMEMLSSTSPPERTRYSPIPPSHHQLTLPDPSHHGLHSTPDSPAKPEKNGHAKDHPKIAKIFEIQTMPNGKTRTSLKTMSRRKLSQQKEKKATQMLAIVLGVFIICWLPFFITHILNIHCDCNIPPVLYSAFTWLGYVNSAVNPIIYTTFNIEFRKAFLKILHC
Method: as §1

human serum albumin = human serum albumin (Homo sapiens, UniProt P02768); format: in vitro ADME
Sequence of human serum albumin (P02768 25-609): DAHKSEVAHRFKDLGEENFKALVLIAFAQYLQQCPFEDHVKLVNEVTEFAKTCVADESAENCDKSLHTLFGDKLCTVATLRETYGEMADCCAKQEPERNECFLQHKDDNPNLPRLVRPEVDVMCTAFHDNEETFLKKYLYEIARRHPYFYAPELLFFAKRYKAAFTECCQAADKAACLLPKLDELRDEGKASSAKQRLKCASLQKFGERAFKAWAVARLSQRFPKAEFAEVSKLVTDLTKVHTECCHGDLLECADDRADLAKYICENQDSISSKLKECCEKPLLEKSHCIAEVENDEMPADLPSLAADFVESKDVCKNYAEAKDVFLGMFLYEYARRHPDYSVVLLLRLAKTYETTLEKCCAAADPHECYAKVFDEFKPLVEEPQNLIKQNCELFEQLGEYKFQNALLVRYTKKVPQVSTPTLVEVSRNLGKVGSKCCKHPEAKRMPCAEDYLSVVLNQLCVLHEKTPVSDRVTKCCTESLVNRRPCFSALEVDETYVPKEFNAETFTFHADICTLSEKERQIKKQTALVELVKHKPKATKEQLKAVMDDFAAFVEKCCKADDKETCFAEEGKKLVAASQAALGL

Sequence of Serotonin 5HT2A (P28223 whole entry): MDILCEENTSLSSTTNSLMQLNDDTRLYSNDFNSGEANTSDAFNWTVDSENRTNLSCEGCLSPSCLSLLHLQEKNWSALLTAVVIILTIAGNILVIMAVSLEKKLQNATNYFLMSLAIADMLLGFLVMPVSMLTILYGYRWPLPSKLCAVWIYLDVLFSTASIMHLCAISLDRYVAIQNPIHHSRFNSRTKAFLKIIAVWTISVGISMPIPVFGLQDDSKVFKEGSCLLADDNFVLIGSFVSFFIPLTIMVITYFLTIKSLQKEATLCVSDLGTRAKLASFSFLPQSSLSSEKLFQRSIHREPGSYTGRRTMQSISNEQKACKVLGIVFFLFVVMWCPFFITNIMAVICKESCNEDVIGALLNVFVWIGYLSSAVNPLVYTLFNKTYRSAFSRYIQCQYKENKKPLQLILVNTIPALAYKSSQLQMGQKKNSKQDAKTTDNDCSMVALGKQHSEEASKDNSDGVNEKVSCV

## CCC[C@@H](NC(=O)c1cccc2c1CC(=O)N2)[C@@H](O)c1cccc(F)c1C [GSK716]
Serotonin 5HT2A
  EC50: > 25.1 µM
  IC50: > 25.1 µM
Z α1‐antitrypsin
  inhibition at 50 µM: > 98%
Serotonin 5HT3
  EC50: > 50.1 µM
  IC50: 31.6 µM
Monoamine oxidase A
  IC50: > 100 µM
Adenosine A2a
  EC50: > 100 µM
PDE3A
  IC50: > 100 µM
Dopamine D2 (DRD2S)
  EC50: > 100 µM
  IC50: > 100 µM
Human serum albumin
  binding to human serum albumin: 84.2%
